According to PMC8778670, “Identification of an Orally Bioavailable, Brain-Penetrant Compound with Selectivity for the Cannabinoid Type 2 Receptor” (Molecules, 2022):

Assay: Stability studies under physiological pH
Assay type: physicochemical
Conditions: 4k compared to 4q, data not reported

For `O=C1c2ccc(Cl)cc2N/C(=N/N=C/c2cc3ccccc3s2)[C@@H]2CCCN12` [Compound 4k], the “tolerance under physiological pH (stability)” value was “better tolerance”.
